Assay results reported in PMC10313671, “Accelerating the prediction and discovery of peptide hydrogels with human-in-the-loop” (Nature Communications, 2023).
Where a SMILES comes first, the peptide text is derived from it.

Key:
[1] = Peptide hydrogel formation, vial-inverting method; format: physicochemical; design: key to EXP / GELATION: 0: no hydrogel; 1: hydrogel; settings: for State: ultrasonication, standing 48 h; for Concentration: concentration at which the state was recorded: lowest of 30, 60, 90, 120 mM that gave a gel, 120 mM for non-gelating peptides; for GELATION: 1 = hydrogel, 0 = no hydrogel
Procedure: After validating the efficiency of APHC in predicting tetrapeptide hydrogels, we detailed the phase state of 165 synthesized tetrapeptides and the observed assembly behavior in an aqueous solution.
This work defines hydrogel formation as a self-supporting, non-flowing mixture of water and hydrogelator by the vial-inverting method. All purified tetrapeptides were dissolved in ultrapure water (to form a 30 mM solution initially), followed by the stepwise addition of 1 N NaOH solution to adjust the overall aqueous pH to 6.5–8.5. Meanwhile, a short-term ultrasonication treatment was applied after each pH adjustment to facilitate peptide solubilization and speed up peptide self-assembly. […] The mixture was allowed to stand in for another 48 h for complete hydrogelation. Upon the absence of gelation phenomenon during the aforementioned loops, we increased the peptide concentration (60 mM, 90 mM, and 120 mM were selected) and re-started such gelation operation loop to explore their gelation feasibility.

[2] = Transmission electron microscope (negative staining) of peptide assemblies; settings: for Morphology: TEM, negative staining with uranyl acetate, 120 kV; for morphology by TEM (in words): aqueous solution or hydrogel, negative staining
Procedure: We used the negative staining technique to observe the morphologies formed by peptides. A micropipette was used to load 10 μL of sample solution to a carbon-coated copper grid, and we used a piece of filter paper to remove the excess solution. After rinsing the grid with the deionized water, we used uranyl acetate to stain the sample for 1 minute and then rinsed the grid with deionized water again.

[3] = 120 mM peptide (highest tested) in ultrapure water, pH 6.5-8.5 (1 N NaOH), vial-inverting method, precipitate, sol, suspension = no gel
[4] = peptide concentration 120 mM, vial-inverting method
[5] = 30 mM peptide in ultrapure water, pH adjusted to 6.5-8.5 with 1 N NaOH, vial-inverting method, concentration raised 30/60/90/120 mM until gelation
[6] = peptide concentration 30 mM, vial-inverting method
[7] = 60 mM peptide in ultrapure water, pH 6.5-8.5 (1 N NaOH), vial-inverting method, no gel at 30 mM
[8] = peptide concentration 60 mM, vial-inverting method

Row | SMILES | State [1, 3] | Concentration [1] [µM] | GELATION [1, 4] | Morphology ([2]; line of the table gives 120 mM) | also measured
1 | C[C@H](N)C(=O)N[C@@H](C)C(=O)N[C@@H](C)C(=O)N[C@@H](C)C(=O)O [AAAA] (H-AAAA-OH) | sol | 120000 | 0 | blank | 
2 | CC[C@H](C)[C@H](NC(=O)[C@@H](NC(=O)[C@H](C)N)C(C)C)C(=O)N[C@@H](CCC(N)=O)C(=O)O [AVIQ] (H-AVIQ-OH) | suspension | 120000 | 0 | aggregates | 
3 | C[C@H](NC(=O)[C@@H](N)CS)C(=O)N[C@@H](Cc1ccc(O)cc1)C(=O)N[C@@H](Cc1c[nH]c2ccccc12)C(=O)O [CAYW] (H-CAYW-OH) | precipitate | 120000 | 0 | aggregates | 
4 | CC(C)C[C@H](NC(=O)[C@H](Cc1ccccc1)NC(=O)[C@@H](N)CS)C(=O)N[C@@H](Cc1c[nH]c2ccccc12)C(=O)O [CFLW] (H-CFLW-OH) | suspension | 120000 | 0 | aggregates | 
5 | N[C@@H](CS)C(=O)N[C@@H](Cc1c[nH]cn1)C(=O)N[C@@H](Cc1ccccc1)C(=O)N[C@@H](Cc1c[nH]c2ccccc12)C(=O)O [CHFW] (H-CHFW-OH) |  | 30000 |  |  | State [1, 5]: gel; GELATION [1, 6]: 1; Morphology ([2]; line of the table gives 30 mM): sphere
6 | CC[C@H](C)[C@H](NC(=O)[C@@H](N)CS)C(=O)N[C@@H](Cc1ccc(O)cc1)C(=O)N[C@@H](Cc1ccccc1)C(=O)O [CIYF] (H-CIYF-OH) |  | 60000 |  |  | State [1, 7]: gel; GELATION [1, 8]: 1; Morphology ([2]; line of the table gives 60 mM): fibre
7 | C[C@@H](O)[C@H](NC(=O)[C@@H](N)CS)C(=O)N[C@@H](Cc1ccc(O)cc1)C(=O)N[C@@H](Cc1ccccc1)C(=O)O [CTYF] (H-CTYF-OH) |  | 30000 |  |  | State [1, 5]: gel; GELATION [1, 6]: 1; Morphology ([2]; line of the table gives 30 mM): fibre
8 | N[C@@H](CS)C(=O)N[C@@H](Cc1c[nH]c2ccccc12)C(=O)N[C@@H](Cc1ccccc1)C(=O)N[C@@H](CO)C(=O)O [CWFS] (H-CWFS-OH) |  | 30000 |  |  | State [1, 5]: gel; GELATION [1, 6]: 1; Morphology ([2]; line of the table gives 30 mM): fibre
9 | C[C@@H](O)[C@H](NC(=O)[C@H](Cc1ccccc1)NC(=O)[C@H](Cc1c[nH]c2ccccc12)NC(=O)[C@@H](N)CS)C(=O)O [CWFT] (H-CWFT-OH) | suspension | 120000 | 0 | aggregates | 
10 | N[C@@H](CS)C(=O)N[C@@H](Cc1c[nH]c2ccccc12)C(=O)N[C@@H](Cc1c[nH]cn1)C(=O)N[C@@H](Cc1ccc(O)cc1)C(=O)O [CWHY] (H-CWHY-OH) | gel | 120000 | 1 | aggregates | 
11 | CC(C)C[C@H](NC(=O)[C@H](C)NC(=O)[C@@H](N)CC(=O)O)C(=O)N[C@H](C(=O)O)C(C)C [DALV] (H-DALV-OH) | suspension | 120000 | 0 | aggregates | 
12 | N[C@@H](CC(=O)O)C(=O)N[C@@H](CC(=O)O)C(=O)N[C@@H](CC(=O)O)C(=O)N[C@@H](CC(=O)O)C(=O)O [DDDD] (H-DDDD-OH) | sol | 120000 | 0 | sphere | 
13 | CC(C)[C@H](NC(=O)[C@@H](N)CC(=O)O)C(=O)N[C@@H](Cc1ccccc1)C(=O)N[C@@H](Cc1c[nH]c2ccccc12)C(=O)O [DVFW] (H-DVFW-OH) |  | 30000 |  |  | State [1, 5]: gel; GELATION [1, 6]: 1; Morphology ([2]; line of the table gives 30 mM): fibre
14 | NCCCC[C@H](NC(=O)[C@H](CCCCN)NC(=O)[C@H](CCC(=O)O)NC(=O)[C@@H](N)CCC(=O)O)C(=O)O [EEKK] (H-EEKK-OH) | sol | 120000 | 0 | blank | 
15 | NCCCC[C@H](NC(=O)[C@H](Cc1ccccc1)NC(=O)[C@H](Cc1ccccc1)NC(=O)[C@@H](N)CCC(=O)O)C(=O)O [EFFK] (H-EFFK-OH) | sol | 120000 | 0 | aggregates | 
16 | C[C@H](NC(=O)[C@@H](N)Cc1ccccc1)C(=O)N[C@@H](Cc1ccccc1)C(=O)N1CCC[C@H]1C(=O)O [FAFP] (H-FAFP-OH) | suspension | 120000 | 0 | particle | 

Row | SMILES | State [1, 3] | Concentration [1] [µM] | GELATION [1, 4] | Morphology ([2]; line of the table gives 120 mM) | also measured
17 | N[C@@H](Cc1ccccc1)C(=O)N[C@@H](CS)C(=O)N[C@@H](Cc1c[nH]c2ccccc12)C(=O)N[C@@H](Cc1c[nH]c2ccccc12)C(=O)O [FCWW] (H-FCWW-OH) | gel | 120000 | 1 | aggregates | 
18 | N[C@@H](Cc1ccccc1)C(=O)N[C@@H](Cc1ccccc1)C(=O)N[C@@H](Cc1ccccc1)C(=O)N[C@@H](Cc1ccccc1)C(=O)O [FFFF] (H-FFFF-OH) |  | 30000 |  |  | State [1, 5]: gel; GELATION [1, 6]: 1; Morphology ([2]; line of the table gives 30 mM): sheet
19 | N[C@@H](Cc1ccccc1)C(=O)N[C@@H](Cc1ccccc1)C(=O)N[C@@H](Cc1ccc(O)cc1)C(=O)N[C@@H](Cc1ccc(O)cc1)C(=O)O [FFYY] (H-FFYY-OH) |  | 30000 |  |  | State [1, 5]: gel; GELATION [1, 6]: 1; Morphology ([2]; line of the table gives 30 mM): needle
20 | N[C@@H](Cc1ccccc1)C(=O)NCC(=O)N[C@@H](Cc1c[nH]c2ccccc12)C(=O)N[C@@H](Cc1c[nH]c2ccccc12)C(=O)O [FGWW] (H-FGWW-OH) | precipitate | 120000 | 0 | sphere | morphology by TEM (in words) [2]: aggregates with different sizes
21 | CC(C)C[C@H](NC(=O)[C@H](Cc1c[nH]cn1)NC(=O)[C@@H](N)Cc1ccccc1)C(=O)N[C@@H](Cc1ccccc1)C(=O)O [FHLF] (H-FHLF-OH) |  | 30000 |  |  | State [1, 5]: gel; GELATION [1, 6]: 1; Morphology ([2]; line of the table gives 30 mM): sheet
22 | NCCCC[C@H](NC(=O)[C@@H](N)Cc1ccccc1)C(=O)N[C@@H](Cc1ccccc1)C(=O)N[C@@H](Cc1ccccc1)C(=O)O [FKFF] (H-FKFF-OH) |  | 60000 |  |  | State [1, 7]: gel; GELATION [1, 8]: 1; Morphology ([2]; line of the table gives 60 mM): sheet
23 | NCCCC[C@H](NC(=O)[C@@H](N)Cc1ccccc1)C(=O)N[C@@H](Cc1ccccc1)C(=O)N[C@@H](Cc1c[nH]c2ccccc12)C(=O)O [FKFW] (H-FKFW-OH) |  | 60000 |  |  | State [1, 7]: gel; GELATION [1, 8]: 1; Morphology ([2]; line of the table gives 60 mM): fibre
24 | CSCC[C@H](NC(=O)[C@@H](N)Cc1ccccc1)C(=O)N[C@@H](CC(C)C)C(=O)N[C@@H](Cc1ccccc1)C(=O)O [FMLF] (H-FMLF-OH) |  | 30000 |  |  | State [1, 5]: gel; GELATION [1, 6]: 1; Morphology ([2]; line of the table gives 30 mM): sheet
25 | CSCC[C@H](NC(=O)[C@@H](N)Cc1ccccc1)C(=O)N[C@@H](Cc1ccc(O)cc1)C(=O)N[C@@H](CO)C(=O)O [FMYS] (H-FMYS-OH) | sol | 120000 | 0 | aggregates | 
26 | CC(C)[C@H](NC(=O)[C@H](Cc1ccc(O)cc1)NC(=O)[C@H](CO)NC(=O)[C@@H](N)Cc1ccccc1)C(=O)O [FSYV] (H-FSYV-OH) |  | 60000 |  |  | State [1, 7]: gel; GELATION [1, 8]: 1; Morphology ([2]; line of the table gives 60 mM): aggregates
27 | CC[C@H](C)[C@H](NC(=O)[C@@H](NC(=O)[C@@H](N)Cc1ccccc1)C(C)C)C(=O)N[C@@H](Cc1ccc(O)cc1)C(=O)O [FVIY] (H-FVIY-OH) |  | 30000 |  |  | State [1, 5]: gel; GELATION [1, 6]: 1; hydrogel formation (in words) ([1]; vial-inverting method, representative hydrogels pH between 7.0 to 7.5): hydrogels; morphology by TEM (in words) [2]: entangled nanofibers
28 | CC(C)C[C@H](NC(=O)[C@@H](NC(=O)[C@H](Cc1ccccc1)NC(=O)[C@@H](N)CCCCN)C(C)C)C(=O)O [KFVL] (H-KFVL-OH) |  |  | 0 |  | 
29 | CC(C)C[C@H](NC(=O)[C@@H](NC(=O)[C@H](Cc1ccccc1)NC(=O)[C@@H](N)CCCCN)C(C)C)C(=O)O [LYS-PHE-VAL-LEU] (H-KFVL-OH) |  |  |  |  | EXP ([1]; experimental gelation result of the synthesized peptide): 0
30 | C[C@@H](O)[C@H](N)C(=O)N[C@@H](CCC(N)=O)C(=O)N[C@@H](Cc1ccccc1)C(=O)N[C@@H](CO)C(=O)O [TQFS] (H-TQFS-OH) |  |  | 0 |  | 
31 | CC(C)[C@H](N)C(=O)N[C@@H](Cc1ccccc1)C(=O)NCC(=O)N[C@H](C(=O)O)C(C)C [VFGV] (H-VFGV-OH) | sol | 120000 | 0 |  | 
